# Where “and” joins values, the source holds several entries; their conditions need not be identical. Equal entries are not always repeated.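 Growth conditions: 96-well plates. Treatment: test compound, 48 hours, 5 concentrations. Analysis: linear interpolation between bracketing concentrations; unreached endpoints set to highest concentration. GI50 = concentration required for 50% inhibition of growth. At the TGI there is no net growth.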
# Key:
# Test in all cases: inhibition of tumour cell growth, NCI panel, 48 h
# 786-0 renal = test system: 786-0 renal
# COLO 205 colon = test system: COLO 205 colon
# HOP-92 NSCLC = test system: HOP-92 NSCLC
# MCF7 breast = test system: MCF7 breast
# OVCAR-5 ovarian = test system: OVCAR-5 ovarian
# RPMI-8226 leukemia = test system: RPMI-8226 leukemia
# SK-MEL-5 melanoma = test system: SK-MEL-5 melanoma
# UACC-62 melanoma = test system: UACC-62 melanoma
smiles,measurement,setting,value
N#CC(C#N)=NNc1ccc2cn[nH]c2c1,TGI,786-0 renal,> 100 µM
same,TGI,COLO 205 colon,> 100 µM
same,TGI,HOP-92 NSCLC,> 100 µM
same,TGI,MCF7 breast,> 100 µM
same,TGI,OVCAR-5 ovarian,> 100 µM
same,TGI,RPMI-8226 leukemia,65.4 µM
same,TGI,SK-MEL-5 melanoma,> 100 µM
same,TGI,UACC-62 melanoma,> 100 µM
Cc1ccc(C)c2c1C(=O)N(c1ccc(F)cc1F)C2=O,GI50,786-0 renal,> 100 µM
same,TGI,786-0 renal,> 100 µM
same,GI50,COLO 205 colon,> 100 µM
same,TGI,COLO 205 colon,> 100 µM
same,GI50,HOP-92 NSCLC,1.11 µM
same,TGI,HOP-92 NSCLC,> 100 µM
same,GI50,MCF7 breast,> 100 µM
same,TGI,MCF7 breast,> 100 µM
same,GI50,OVCAR-5 ovarian,> 100 µM
same,TGI,OVCAR-5 ovarian,> 100 µM
same,GI50,RPMI-8226 leukemia,98.8 µM
same,TGI,RPMI-8226 leukemia,> 100 µM
same,GI50,UACC-62 melanoma,> 100 µM
same,TGI,UACC-62 melanoma,> 100 µM
C[C@@H](N)COc1ccc(-c2cnc3ccc(N[C@H](C)c4cccc(F)c4)nn23)cc1,GI50,786-0 renal,1.33 µM
same,TGI,786-0 renal,2.74 µM
same,GI50,COLO 205 colon,1.1 µM
same,TGI,COLO 205 colon,2.96 µM
same,GI50,HOP-92 NSCLC,0.338 µM
same,TGI,HOP-92 NSCLC,1.89 µM
same,GI50,MCF7 breast,1.24 µM
same,TGI,MCF7 breast,2.69 µM
same,GI50,OVCAR-5 ovarian,1.38 µM
same,TGI,OVCAR-5 ovarian,4.54 µM
same,GI50,RPMI-8226 leukemia,1.81 µM
same,TGI,RPMI-8226 leukemia,5.3 µM
same,GI50,SK-MEL-5 melanoma,1.63 µM
same,TGI,SK-MEL-5 melanoma,3.03 µM
same,GI50,UACC-62 melanoma,1.97 µM
same,TGI,UACC-62 melanoma,4.74 µM
CS(=O)(=O)N1CCC(n2c(=O)c(Oc3ccc(F)cc3F)cc3cnc(NC4CCOCC4)nc32)CC1,GI50,786-0 renal,> 25 µM
same,TGI,786-0 renal,> 25 µM
same,GI50,COLO 205 colon,> 25 µM
same,TGI,COLO 205 colon,> 25 µM
same,GI50,HOP-92 NSCLC,> 25 µM
same,TGI,HOP-92 NSCLC,> 25 µM
same,GI50,MCF7 breast,> 25 µM
same,TGI,MCF7 breast,> 25 µM
same,GI50,OVCAR-5 ovarian,> 25 µM
same,TGI,OVCAR-5 ovarian,> 25 µM
same,GI50,RPMI-8226 leukemia,> 17.5 µM
same,TGI,RPMI-8226 leukemia,> 25 µM
same,GI50,SK-MEL-5 melanoma,> 25 µM
same,TGI,SK-MEL-5 melanoma,> 25 µM
same,GI50,UACC-62 melanoma,> 25 µM
same,TGI,UACC-62 melanoma,> 25 µM
O=C([O][Hg][c]1ccccc1)c1ccccc1,GI50,786-0 renal,1.81 µM
same,TGI,786-0 renal,3.5 µM
same,GI50,COLO 205 colon,1.89 µM
same,TGI,COLO 205 colon,3.35 µM
same,GI50,HOP-92 NSCLC,1.35 µM
same,TGI,HOP-92 NSCLC,2.72 µM
same,GI50,OVCAR-5 ovarian,2.48 µM
same,TGI,OVCAR-5 ovarian,5.56 µM
same,GI50,RPMI-8226 leukemia,1.23 µM
same,TGI,RPMI-8226 leukemia,4.56 µM
same,GI50,SK-MEL-5 melanoma,1.53 µM
same,TGI,SK-MEL-5 melanoma,3.06 µM
same,GI50,UACC-62 melanoma,1.55 µM
same,TGI,UACC-62 melanoma,4.18 µM
Cc1ccc([P+](Cc2ccccc2)(c2ccccc2)c2ccccc2)cc1,GI50,786-0 renal,4.11 µM
same,TGI,786-0 renal,> 100 µM
same,GI50,MCF7 breast,1.92 µM
same,TGI,MCF7 breast,> 100 µM
same,GI50,OVCAR-5 ovarian,3.42 µM
same,TGI,OVCAR-5 ovarian,> 100 µM
same,GI50,RPMI-8226 leukemia,0.6 µM
same,TGI,RPMI-8226 leukemia,6.63 µM
same,GI50,SK-MEL-5 melanoma,0.904 µM
same,TGI,SK-MEL-5 melanoma,2.3 µM
same,GI50,UACC-62 melanoma,1.77 µM
same,TGI,UACC-62 melanoma,11.3 µM
COc1cc2c(c(O)c1Cl)C(=O)c1c(O)cc(C[C@H](C)O)cc1[C@H]2[C@H]1c2cc(C[C@H](C)O)cc(O)c2C(=O)c2c1cc(OC)c(Cl)c2O,GI50,786-0 renal,3.21 µM and 30.3 µM
same,TGI,786-0 renal,75 µM and > 100 µM
same,TGI,MCF7 breast,75 µM and 94.4 µM
same,TGI,RPMI-8226 leukemia,75 µM and 74.4 µM
O=C(O)CCCCn1ccc(=O)[nH]c1=O,TGI,786-0 renal,> 100 µM
same,TGI,COLO 205 colon,> 100 µM
same,TGI,MCF7 breast,> 100 µM
same,TGI,OVCAR-5 ovarian,> 100 µM
same,TGI,RPMI-8226 leukemia,> 100 µM
same,TGI,SK-MEL-5 melanoma,> 100 µM
same,TGI,UACC-62 melanoma,> 100 µM
O=C(CCCn1c2c(sc3ccccc32)c(=O)n2nnc(-c3ccccc3)c12)NCCc1cnc[nH]1,GI50,786-0 renal,0.594 µM
same,TGI,786-0 renal,1.79 µM
same,GI50,COLO 205 colon,0.299 µM
same,TGI,COLO 205 colon,2.35 µM
same,GI50,HOP-92 NSCLC,6.16 µM
same,TGI,HOP-92 NSCLC,33 µM
same,GI50,MCF7 breast,1.1 µM
same,TGI,MCF7 breast,2.43 µM
same,GI50,OVCAR-5 ovarian,0.0751 µM
same,TGI,OVCAR-5 ovarian,1.51 µM
same,GI50,SK-MEL-5 melanoma,1.84 µM
same,TGI,SK-MEL-5 melanoma,11.4 µM
same,GI50,UACC-62 melanoma,1.81 µM
same,TGI,UACC-62 melanoma,3.39 µM
COC(=O)Oc1nn(C(=O)OC)c(=O)c2ccccc12,TGI,786-0 renal,> 100 µM
same,TGI,COLO 205 colon,> 100 µM
same,TGI,MCF7 breast,> 100 µM
same,TGI,OVCAR-5 ovarian,> 100 µM
same,TGI,RPMI-8226 leukemia,> 100 µM
same,TGI,SK-MEL-5 melanoma,> 100 µM
same,TGI,UACC-62 melanoma,> 100 µM

# Source: PubChem BioAssay (NCI)
